Measured values as given in patent US20260028365A1 (BIOGEN MA INC., priority 2022, published 2026).

molecular target: Tyk2 (Homo sapiens (Human), UniProt P29597); test: pSTAT4 Cell Assay (MSD, NK92 cells); format: cell-based; settings: not given
Protocol: The inhibitory potency of compounds of the disclosure against the Tyk2 kinase activity on STAT4 was evaluated using an MSD-platform plate-based assay format. NK92 cells natively expressing STAT4 and Tyk2 were serum-starved to reduce background phosphorylation levels, then cells were treated compounds for 1 hr with a 10-point four-fold dilution series starting at 10 μM. Cells were then stimulated with 30 ng/mL […] for 15 minutes. […] The data were normalized and the percent activity versus log concentration of compound were fitted with a 4-parameter logistic model to generate to generate IC50 curves.

Tyk2, sequence (P29597 whole entry): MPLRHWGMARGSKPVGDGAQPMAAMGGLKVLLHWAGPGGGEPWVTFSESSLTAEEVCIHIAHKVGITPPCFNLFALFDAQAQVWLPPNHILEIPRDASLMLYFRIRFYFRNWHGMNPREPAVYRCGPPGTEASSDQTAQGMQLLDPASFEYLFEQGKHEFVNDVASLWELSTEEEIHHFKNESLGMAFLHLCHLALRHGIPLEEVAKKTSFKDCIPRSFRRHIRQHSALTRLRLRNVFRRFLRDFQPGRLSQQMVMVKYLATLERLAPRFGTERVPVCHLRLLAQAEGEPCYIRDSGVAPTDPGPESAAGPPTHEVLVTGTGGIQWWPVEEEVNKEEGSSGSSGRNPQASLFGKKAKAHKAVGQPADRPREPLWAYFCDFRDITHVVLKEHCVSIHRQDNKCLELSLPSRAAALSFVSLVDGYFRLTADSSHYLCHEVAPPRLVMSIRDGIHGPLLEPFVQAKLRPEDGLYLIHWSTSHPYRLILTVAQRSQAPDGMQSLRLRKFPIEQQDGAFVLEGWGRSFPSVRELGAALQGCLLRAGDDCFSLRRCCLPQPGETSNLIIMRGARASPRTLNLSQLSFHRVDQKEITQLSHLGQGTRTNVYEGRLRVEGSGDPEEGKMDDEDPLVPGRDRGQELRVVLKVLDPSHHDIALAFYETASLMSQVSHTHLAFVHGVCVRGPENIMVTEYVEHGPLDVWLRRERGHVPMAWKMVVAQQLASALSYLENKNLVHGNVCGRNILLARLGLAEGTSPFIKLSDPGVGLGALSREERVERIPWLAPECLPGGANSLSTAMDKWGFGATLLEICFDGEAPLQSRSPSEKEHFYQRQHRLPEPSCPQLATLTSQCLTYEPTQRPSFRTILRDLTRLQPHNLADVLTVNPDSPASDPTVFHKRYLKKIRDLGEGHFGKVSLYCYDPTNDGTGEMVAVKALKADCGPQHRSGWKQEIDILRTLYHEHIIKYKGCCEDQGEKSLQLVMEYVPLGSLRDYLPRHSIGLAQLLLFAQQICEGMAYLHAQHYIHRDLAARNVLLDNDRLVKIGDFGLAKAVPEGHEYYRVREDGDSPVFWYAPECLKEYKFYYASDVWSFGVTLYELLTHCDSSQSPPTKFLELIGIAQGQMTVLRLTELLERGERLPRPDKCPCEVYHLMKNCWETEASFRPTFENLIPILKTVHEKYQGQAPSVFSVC

IC50 | Structure (SMILES)
≤ 10 nM | CCc1cc(Nc2cc(NC(C)=O)ncc2-c2ccc(F)c(CN3CCOCC3)n2)nc(C(C)(F)F)n1 [Example 910, N-(4′-((2-(1,1-difluoroethyl)-6-ethylpyrimidin-4-yl)amino)-5-fluoro-6-(morpholinomethyl)-[2,3′-bipyridin]-6′-yl)acetamide]
≤ 10 nM | CCc1cc(Nc2cc(NC(C)=O)ncc2-c2ccc(F)c(CN3C[C@H]4C[C@@H](C3)O4)n2)nc(C(C)(F)F)n1 [Example 915, N-(6-(((1R,5S)-6-oxa-3-azabicyclo[3.1.1]heptan-3-yl)methyl)-4′-((2-(1,1-difluoroethyl)-6-ethylpyrimidin-4-yl)amino)-5-fluoro-[2,3′-bipyridin]-6′-yl)acetamide]
10 to 100 nM | CCc1cc(Nc2cc(NC(C)=O)ncc2-c2ccnc(CN3C[C@H]4C[C@@H](C3)O4)n2)nc(C(C)(F)F)n1 [Example 913, N-(5-(2-(((1R,5S)-6-oxa-3-azabicyclo[3.1.1]heptan-3-yl)methyl)pyrimidin-4-yl)-4-((2-(1,1-difluoroethyl)-6-ethylpyrimidin-4-yl)amino)pyridin-2-yl)acetamide]
≤ 10 nM | CCc1cc(Nc2cc(NC(C)=O)ncc2-c2ccc(F)c(CN3C[C@H]4C[C@@H]3CO4)n2)nc(C(C)(F)F)n1 [Example 908, N-(6-(((1R,4R)-2-oxa-5-azabicyclo[2.2.1]heptan-5-yl)methyl)-4′-((2-(1,1-difluoroethyl)-6-ethylpyrimidin-4-yl)amino)-5-fluoro-[2,3′-bipyridin]-6′-yl)acetamide]
≤ 10 nM | CC(=O)Nc1cc(Nc2cc(C)nc(C(C)(F)F)n2)c(-c2ccc(P(C)(C)=O)cn2)cn1 [Example 916, N-(4′-((2-(1,1-difluoroethyl)-6-methylpyrimidin-4-yl)amino)-5-(dimethylphosphoryl)-[2,3′-bipyridin]-6′-yl)acetamide]

Structure (SMILES) | IC50
CN1CCc2sc(-c3cnc(NC=O)cc3Nc3ccnc(C(C)(F)F)n3)nc2C1 [Example 796, N-(4-((2-(1,1-difluoroethyl)pyrimidin-4-yl)amino)-5-(5-methyl-4,5,6,7-tetrahydrothiazolo[4,5-c]pyridin-2-yl)pyridin-2-yl)formamide] | 10 to 100 nM
CCc1cc(Nc2cc(NC(C)=O)ncc2-c2cnc(CN3CCOCC3)cn2)nc(C(C)(F)F)n1 [Example 899, N-(4-((2-(1,1-difluoroethyl)-6-ethylpyrimidin-4-yl)amino)-5-(5-(morpholinomethyl)pyrazin-2-yl)pyridin-2-yl)acetamide] | 10 to 100 nM

same assay, conditions: MSD

IC50 | Structure (SMILES)
≤ 10 nM | CC(=O)Nc1cc(Nc2cc(C)nc(C(C)(F)F)n2)c(-c2nc3c(s2)CN(C)C3)cn1 [Example 684, N-(4-((2-(1,1-difluoroethyl)-6-methylpyrimidin-4-yl)amino)-5-(5-methyl-5,6-dihydrO4H-pyrrolo[3,4-d]thiazol-2-yl)pyridin-2-yl)acetamide]
≤ 10 nM | CC(=O)Nc1cc(Nc2cc(C)nc(C(C)(F)F)n2)c(-c2cccc(C3CCCO3)n2)cn1 (stereo not drawn) [Example 639, N-(4′-((2-(1,1-difluoroethyl)-6-methylpyrimidin-4-yl)amino)-6-(tetrahydrofuran-2-yl)-[2,3′-bipyridin]-6′-yl)acetamide]
10 to 100 nM | CC(=O)Nc1cc(Nc2cc(C)nc(C(C)(F)F)n2)c(OC[C@@H]2COC(C)(C)O2)cn1 [Example 110, (R)-N-(4-((2-(1,1-difluoroethyl)-6-methylpyrimidin-4-yl)amino)-5-((2,2-dimethyl-1,3-dioxolan-4-yl)methoxy)pyridin-2-yl)acetamide]
10 to 100 nM | CC(=O)Nc1cc(Nc2cc(C)nc(C(C)(F)F)n2)c(OCc2ccc(C)nc2)cn1 [Example 116, N-(4-((2-(1,1-difluoroethyl)-6-methylpyrimidin-4-yl)amino)-5-((6-methylpyridin-3-yl)methoxy)pyridin-2-yl)acetamide]
10 to 100 nM | CC(=O)Nc1cc(Nc2cc(C)nc(C(C)(F)F)n2)c(OCc2nccs2)cn1 [Example 108, N-(4-((2-(1,1-difluoroethyl)-6-methylpyrimidin-4-yl)amino)-5-(thiazol-2-ylmethoxy)pyridin-2-yl)acetamide]
10 to 100 nM | COCCOc1cc(-c2cnc(NC(C)=O)cc2Nc2cc(C)nc(C(C)(F)F)n2)ncn1 [Example 249, N-(4-((2-(1,1-difluoroethyl)-6-methylpyrimidin-4-yl)amino)-5-(6-(2-methoxyethoxy)pyrimidin-4-yl)pyridin-2-yl)acetamide]
≤ 10 nM | CC(=O)Nc1cc(Nc2cc(C)nc(C(C)(F)F)n2)c(OCC2CCCOC2)cn1 (stereo not drawn) [Example 136, N-(4-((2-(1,1-difluoroethyl)-6-methylpyrimidin-4-yl)amino)-5-((tetrahydro-2H-pyran-3-yl)methoxy)pyridin-2-yl)acetamide]
≤ 10 nM | CC(=O)Nc1cc(Nc2cc(C)nc(C(C)(F)F)n2)c(-c2cc3n(n2)CCN(C)C3C)cn1 (stereo not drawn) [Example 683, N-(4-((2-(1,1-difluoroethyl)-6-methylpyrimidin-4-yl)amino)-5-(4,5-dimethyl-4,5,6,7-tetrahydropyrazolo[1,5-a]pyrazin-2-yl)pyridin-2-yl)acetamide]
10 to 100 nM | CC(=O)Nc1cc(Nc2cc(C)nc(C(C)(F)F)n2)c(OCc2nnc(C)s2)cn1 [Example 118, N-(4-((2-(1,1-difluoroethyl)-6-methylpyrimidin-4-yl)amino)-5-((5-methyl-1,3,4-thiadiazol-2-yl)methoxy)pyridin-2-yl)acetamide]
≤ 10 nM | CC(=O)Nc1cc(Nc2cc(C)nc(C(C)(F)F)n2)c(OCc2cc(C)sn2)cn1 [Example 115, N-(4-((2-(1,1-difluoroethyl)-6-methylpyrimidin-4-yl)amino)-5-((5-methylisothiazol-3-yl)methoxy)pyridin-2-yl)acetamide]
10 to 100 nM | CC(=O)Nc1cc(Nc2cc(C)nc(C(C)(F)F)n2)c(OCc2ccc(C)cn2)cn1 [Example 130, N-(4-((2-(1,1-difluoroethyl)-6-methylpyrimidin-4-yl)amino)-5-((5-methylpyridin-2-yl)methoxy)pyridin-2-yl)acetamide]
≤ 10 nM | CC(=O)Nc1cc(Nc2cc(C)nc(C(C)(F)F)n2)c(-c2ccc([C@@H]3COCCN3C)cn2)cn1 (single isomer, unassigned) [Example 646, (R)-N-(4′-((2-(1,1-difluoroethyl)-6-methylpyrimidin-4-yl)amino)-5-(4-methylmorpholin-3-yl)-[2,3′-bipyridin]-6′-yl)acetamide or (S)-N-(4′-((2-(1,1-difluoroethyl)-6-methylpyrimidin-4-yl)amino)-5-(4-methylmorpholin-3-yl)-[2,3′-bipyridin]-6′-yl)acetamide]
≥ 1000 nM | COc1nc(-c2cnc(NC(C)=O)cc2Nc2cc(C)nc(C(C)(F)F)n2)ncc1F [Example 659, N-(4-((2-(1,1-difluoroethyl)-6-methylpyrimidin-4-yl)amino)-5-(5-fluorO4-methoxypyrimidin-2-yl)pyridin-2-yl)acetamide]
≤ 10 nM | CC(=O)Nc1cc(Nc2cc(C)nc(C(C)(F)F)n2)c(-c2ccc3c(n2)CCOC3)cn1 [Example 679, N-(4-((2-(1,1-difluoroethyl)-6-methylpyrimidin-4-yl)amino)-5-(7,8-dihydrO5H-pyrano[4,3-b]pyridin-2-yl)pyridin-2-yl)acetamide]
10 to 100 nM | CC(=O)Nc1cc(Nc2cc(C)nc(C(C)(F)F)n2)c(OCc2cc(C)cc(C)n2)cn1 [Example 123, N-(4-((2-(1,1-difluoroethyl)-6-methylpyrimidin-4-yl)amino)-5-((4,6-dimethylpyridin-2-yl)methoxy)pyridin-2-yl)acetamide]
10 to 100 nM | CC(=O)Nc1cc(Nc2cc(C)nc(C(C)(F)F)n2)c(OCc2ccc(C#N)cn2)cn1 [Example 131, N-(5-((5-cyanopyridin-2-yl)methoxy)-4-((2-(1,1-difluoroethyl)-6-methylpyrimidin-4-yl)amino)pyridin-2-yl)acetamide]
≤ 10 nM | COc1cnc(NC(C)=O)cc1Nc1cc(-c2cnc(C)s2)nc(C(C)(F)F)n1 [Example 387, N-(4-((2-(1,1-difluoroethyl)-6-(2-methylthiazol-5-yl)pyrimidin-4-yl)amino)-5-methoxypyridin-2-yl)acetamide]

Further lines, the compound ahead of its results:

Structure (SMILES) | IC50
CO[C@H]1C[C@H](Oc2cc(Nc3cc(NC(C)=O)ncc3-c3ccn(C)n3)nc(C(C)(F)F)c2)C1 [Example 148, N-(4-((6-(1,1-difluoroethyl)-4-((1r,3r)-3-methoxycyclobutoxy)pyridin-2-yl)amino)-5-(1-methyl-1H-pyrazol-3-yl)pyridin-2-yl)acetamide] | ≤ 10 nM
COc1cc(Nc2cc(NC(C)=O)ncc2-c2ccn(C)n2)nc(C(C)(F)F)c1 [Example 209, N-(4-((6-(1,1-difluoroethyl)-4-methoxypyridin-2-yl)amino)-5-(1-methyl-1H-pyrazol-3-yl)pyridin-2-yl)acetamide] | ≤ 10 nM
CCc1cc(Nc2cc(NC(C)=O)ncc2-c2cc3n(n2)CCN(C)C3)nc(C(C)(F)F)n1 [Example 721, N-(4-((2-(1,1-difluoroethyl)-6-ethylpyrimidin-4-yl)amino)-5-(5-methyl-4,5,6,7-tetrahydropyrazolo[1,5-a]pyrazin-2-yl)pyridin-2-yl)acetamide] | ≤ 10 nM
CC(=O)Nc1cc(Nc2ccnc(C(C)(F)F)n2)c(-c2cnc(C)cn2)cn1 [Example 693, N-(4-((2-(1,1-difluoroethyl)pyrimidin-4-yl)amino)-5-(5-methylpyrazin-2-yl)pyridin-2-yl)acetamide] | 10 to 100 nM
CC(=O)Nc1cc(Nc2ccnc(C(C)(F)F)n2)c(OC2CCC2)cn1 [Example 7, N-(5-cyclobutoxy-4-((2-(1,1-difluoroethyl)pyrimidin-4-yl)amino)pyridin-2-yl)acetamide] | 100 to 1000 nM
CC(=O)Nc1cc(Nc2ccnc(C(C)(F)F)n2)c(OC(F)F)cn1 [Example 6, N-(4-((2-(1,1-difluoroethyl)pyrimidin-4-yl)amino)-5-(difluoromethoxy)pyridin-2-yl)acetamide] | ≥ 1000 nM
